The subject of one assay is HCT116 cells. The format is cell-based, human.

Where no end group is shown, it is not given here. Where only a bound is given, the exact number is not on record here.

The values that follow come from patent US11371061B2, “Compositions and methods for improving viral vector efficiency” (GENETHON, priority 2015, dated 2022).

As to “KKALLHAALAHLLALAHHLLALLKKA-NH2 [Vectofusin-1]”, the “aggregation of viral particles (pull-down)” value in the assay on VSV-G-LV particles was “aggregation of viral particles, like it is the case for Vectofusin-1”.

As to “KLALKLALKALKAALKA G TNVFNATFEIWHDGEFGT (KLALKLALKALKAALKAGTNVFNATFEIWHDGEFGT; Synthetic MAP-B1) [MAP-Beclin1]”, the “capacity to promote lentiviral transduction” value in the assay on HCT116 cells is “as efficient as TB1”.

With “TNVFNATFEIWHDGEFGT (Synthetic modified beclin-1 267-284) [the 267-284 modified beclin1 domain, reference compound]”, the “capacity to promote lentiviral transduction” value in the assay on HCT116 cells was “neither Tat nor Bec peptides are capable to promote lentiviral transduction”.

As to “YGRKKRRQRRR (Synthetic Tat (47-57)) [the Tat transduction domain, reference compound]”, the “capacity to promote lentiviral transduction” value in the assay with HCT116 cells is reported as “neither Tat nor Bec peptides are capable to promote lentiviral transduction”.

For the substance “YGRKKRRQRRR GG FEIWHDGEFGTINNFRLGRLPSVPV (YGRKKRRQRRRGGFEIWHDGEFGTINNFRLGRLPSVPV; Synthetic TB1 274-298) [Tat-Bec(274-298)]”, the “capacity to promote lentiviral transduction at 2.5 μM” value (“capacity … at 2.5 μM” below) in the assay on HCT116 cells is given as “most of the derivatives are a lot more efficient than TB1, except for Tat-Bec(274-298)”.

With “YGRKKRRQRRR GG INCFTATFEIWVEGPLGV (YGRKKRRQRRRGGINCFTATFEIWVEGPLGV; Synthetic TAT+ GG + Beclin2) [Tat-Bec2WT]”, in the assay with HCT116 cells, the “effect on lentiviral transduction at 100 nM” value is “three-folds”, the “lentiviral transduction at 100 nM” value was 30% and the “optimal dose to promote lentiviral transduction” value is 500 nM.

With “YGRKKRRQRRR GG TNVFNATFEIWHDGEFGTINNFRLGRLPSV (YGRKKRRQRRRGGTNVFNATFEIWHDGEFGTINNFRLGRLPSV; Synthetic TB1 267-296) [Tat-Bec(267-296)]”, the “dose capable to promote optimal lentiviral transduction” value with HCT116 cells is not below 1 µM.

As to “YGRKKRRQRRR GG TNVFNATFHIWHSGQFGT (YGRKKRRQRRRGGTNVFNATFHIWHSGQFGT; Synthetic TB WT) [Tat-BecWT]”, in the assay with HCT116 cells, the “capacity … at 2.5 μM” value is on record as “capable to promote lentiviral transduction as efficiently as TB1”, the “capacity to promote lentiviral transduction at 5 μM” value is given as “no longer active”, the “effect on lentiviral transduction at 100 nM” value is “no effect” and the “optimal dose to promote lentiviral transduction” value is 1000 nM.

Take “YGRKKRRQRRR GG TNVFNATFHIWHSGQFGTINNFRLGRLPSV (YGRKKRRQRRRGGTNVFNATFHIWHSGQFGTINNFRLGRLPSV; Synthetic TB WT 267-296) [Tat-Bec(267-296)WT]”: the “capacity … at 2.5 μM” value in the assay on HCT116 cells is reported as “promoting the lentiviral transduction but less efficiently than the Tat-Bec(267-296) peptide”.

Consider “YGRKKRRQRRR GG VENQMRYAQTQLDKLKKTNVFNATFEIWHDGEF (YGRKKRRQRRRGGVENQMRYAQTQLDKLKKTNVFNATFEIWHDGEF; Synthetic TB1 250-282) [Tat-Bec(250-282)]”, for which the “capacity … at 2.5 μM” value with HCT116 cells was “most performant peptide at a low dose”.

In the case of “YGRKKRRQRRR TNVFNATFEIWHDGEFGTINNFRLGRLPSV (YGRKKRRQRRRTNVFNATFEIWHDGEFGTINNFRLGRLPSV; Synthetic modified Tat-Beclin-1 + beclin-1 285-296) [Tat-Bec(267-296)dGG]”, the “increase of the level of viral transduction” value in the assay on HCT116 cells is given as “nearly five folds”.
